# Laboratory results reported in US12622968B2, “Formulation for oral delivery of proteins, peptides and small molecules with poor permeability” (R.P. Scherer Technologies, LLC, priority 2019, dated 2026).
# Values joined by “and” are separate entries in the source; they are usually repeats but may differ in a detail not shown here. Equal values may be shown once. Read-outs that look alike come from different tables or passages of the source.
# Assay: Single dose oral capsule pharmacokinetics of BHV-3500 in dogs (plasma LC-MS/MS)
# Type: in vivo, beagle dogs
# Conditions: for AUC(0-t): read-out: AUC0-4 hr; for concentration at 0.5 h: 0.5 h post-dose
# Experimental: The pharmacokinetics (PK) of BHV-3500 after a single oral capsule of BHV-3500 in dogs were investigated.
# After each dose, blood samples (approximately 3 mL from the jugular vein) for determination of plasma levels of BHV-3500 were obtained from of each dog at six time points (pre-dose; 15, 30, and 60 minutes and 2 and 4 hours post-dose. EDTA was used as the anticoagulant. Plasma samples were frozen at approximately −70′C until analyzed.
# For the determination of BHV-3500 in plasma, a 50 μL aliquot from each sample was transferred into the appropriate well of a 96-well plate to which 10 μL of 50% acetonitrile (ACN) in water was added, followed by 250 μL of internal standard solution (10 ng/mL BHV-3500-d8 in ACN). After sealing the plate and vortexing for approximately 5 minutes, the plate was centrifuged at 4,000 rpm for 10 minutes at 4±4° C. A portion (100 μL) of the resulting supernatant was transferred to into the appropriate well (containing 300 μL 0.15% formic acid in water) of another 96-well plate. This plate was sealed and its contents mixed prior to instrumental analysis.
# Freshly prepared BHV-3500 standard curves and QC samples were analyzed along with the study samples. Instrument calibrators were prepared by adding 10 μL of a stock BHV-3500 solution to 50 μL of blank dog plasma. Blank dog plasma was sourced from BioIVT (Hicksville, NY) and stored frozen at −20° C. Nominal calibrator concentrations ranged from 2.00 to 200 ng/mL. QC samples were prepared at concentrations of 6.00, 50.0 and 150 ng/mL. Calibrators and QC samples were processed for analysis following the extraction procedure described above.
# Calibrator, QC and study samples were analyzed under LC-S/MS instrument conditions detailed in Table 7.
# Calibration curves were calculated from the linear regression (weighting factor of 1/x2) of the analyte to internal standard peak area ratios versus the analyte concentrations. Concentrations of analyte in the samples were determined using the peak area ratios and the regression parameters of the calibration curves.
# Individual animal plasma BHV-3500 concentration data at scheduled (nominal) sampling times were analyzed using the non-compartmental model f r extravascular administration with Phoenix WinNonlin software (Version 8.1; Certara, Princeton, NJ).
# Elimination rate constant values (λz) were calculated by log-linear regression on data points of the terminal phase (using Phoenix WinNonlin's Best Fit Lambda Z Calculation Method option) when allowed by the data; the plasma elimination half-life (t1/2) was calculated as ln(2)/λz. Area under the plasma concentration-time curve values from time zero to the concentration at the 4 hour time point (AUC0-4 hr) were calculated by the linear-up/log-down trapezoidal rule.
# Nominal dose levels were used for PK analysis. The PK parameters listed below were evaluated (as applicable and when allowed by the data). • Elimination half-life (t1/2) • Time of occurrence of maximum plasma concentration (Tmax) • Maximum plasma concentration (Cmax) • Area under plasma concentration-time curve [0 to the 4 hour time point; AUC0-4hr]
# [1] = Group 6, oral capsule, 50 mg BHV-3500 in 25 mg DDM, individual dogs
# [2] = female, beagle, dog, plasma, po, 20 mg, Group 3, oral capsule, 20 mg BHV-3500 in 25 mg DDM, average
# [3] = female, beagle, dog, plasma, po, 20 mg, Group 3, oral capsule, 20 mg BHV-3500 in 25 mg DDM, individual dogs
structure (smiles),measurement,setting,value
"Cc1cc(C[C@@H](NC(=O)N2CCC(c3cc4ccccc4[nH]c3=O)CC2)C(=O)N2CCN(C3CCN(C)CC3)CC2)cc2cn[nH]c12 [BHV-3500, (R)—N-(3-(7-methyl-1H indazol-5-yl)-1-(4-(1-methylpiperidin-4-yl)piperazin-1-yl)-1-oxopropan-2-yl)-4-(2-oxo-1,2 dihydroquinolin-3-yl)piperidine-1-carboxamide]",BHV-3500 Concentration in Dog Plasma,"Group 6, oral capsule, 50 mg BHV-3500 in 25 mg DDM, 2 h post-dose, individual dogs",BQL (BQL = below quantitation limit (2.0 ng/mL))
same,BHV-3500 Concentration in Dog Plasma,"Group 6, oral capsule, 50 mg BHV-3500 in 25 mg DDM, 4 h post-dose, individual dogs",BQL (BQL = below quantitation limit (2.0 ng/mL))
same,AUC0-4 hr,[1],10.6 ng·h/mL and 24.0 ng·h/mL
same,Cmax,[1],5.34 ng/mL and 2.42 ng/mL and 12.0 ng/mL
same,Tmax,[1],1 h
same,concentration at 2 h,"female, beagle, dog, plasma, oral, 20 mg, Group 2, 20 mg with Vehicle 6, 2 hours post-dose, read-out: mean plasma exposure",22 nM
same,concentration at 2 h,"female, beagle, dog, plasma, oral, 20 mg, Group 3, 20 mg with DDM, 2 hours post-dose, read-out: mean plasma exposure",29.5 nM
same,concentration at 1 h,"female, beagle, dog, plasma, oral, 50 mg, Group 5, 50 mg with Vehicle 6, 1 hour post-dose, read-out: mean plasma exposure",18 nM
same,concentration at 2 h,"female, beagle, dog, plasma, oral, 50 mg, Group 5, 50 mg with Vehicle 6, 2 hours post-dose, read-out: mean plasma exposure",63.3 nM
same,concentration at 4 h,"female, beagle, dog, plasma, oral, 50 mg, Group 6, 50 mg with DDM, 4 hours post-dose, read-out: mean plasma exposure",13.5 nM
same,concentration at 1 h,"female, beagle, dog, plasma, po, 20 mg, Group 2, oral capsule, 20 mg BHV-3500 in 900 mg vehicle of Formulation 2 (SEDDS excipients), 1 h post-dose, average, read-out: BHV-3500 Concentration in Dog Plasma",2.57 ng/mL
same,concentration at 2 h,"female, beagle, dog, plasma, po, 20 mg, Group 2, oral capsule, 20 mg BHV-3500 in 900 mg vehicle of Formulation 2 (SEDDS excipients), 2 h post-dose, average, read-out: BHV-3500 Concentration in Dog Plasma",14.2 ng/mL
same,concentration at 4 h,"female, beagle, dog, plasma, po, 20 mg, Group 2, oral capsule, 20 mg BHV-3500 in 900 mg vehicle of Formulation 2 (SEDDS excipients), 4 h post-dose, average, read-out: BHV-3500 Concentration in Dog Plasma",3.09 ng/mL
same,AUC(0-t),"female, beagle, dog, plasma, po, 20 mg, Group 2, oral capsule, 20 mg BHV-3500 in 900 mg vehicle of Formulation 2 (SEDDS excipients), average",19.8 ng·h/mL
same,Cmax,"female, beagle, dog, plasma, po, 20 mg, Group 2, oral capsule, 20 mg BHV-3500 in 900 mg vehicle of Formulation 2 (SEDDS excipients), average, read-out: Cmax",14.2 ng/mL
same,AUC(0-t),"female, beagle, dog, plasma, po, 20 mg, Group 2, oral capsule, 20 mg BHV-3500 in 900 mg vehicle of Formulation 2 (SEDDS excipients), individual dogs",19.8 ng·h/mL
same,Tmax,"female, beagle, dog, plasma, po, 20 mg, Group 2, oral capsule, 20 mg BHV-3500 in 900 mg vehicle of Formulation 2 (SEDDS excipients), individual dogs, read-out: Tmax",2 h
same,Tmax,"female, beagle, dog, plasma, po, 20 mg, Group 2, oral capsule, 20 mg BHV-3500 in 900 mg vehicle of Formulation 2 (SEDDS excipients), median, read-out: Tmax",2 h
same,concentration at 0.5 h,[2],14 ng/mL
same,concentration at 0.5 h,[3],14 ng/mL
same,concentration at 1 h,"female, beagle, dog, plasma, po, 20 mg, Group 3, oral capsule, 20 mg BHV-3500 in 25 mg DDM, 1 h post-dose, average, read-out: BHV-3500 Concentration in Dog Plasma",3.56 ng/mL
same,concentration at 1 h,"female, beagle, dog, plasma, po, 20 mg, Group 3, oral capsule, 20 mg BHV-3500 in 25 mg DDM, 1 h post-dose, individual dogs, read-out: BHV-3500 Concentration in Dog Plasma",3.56 ng/mL
same,concentration at 2 h,"female, beagle, dog, plasma, po, 20 mg, Group 3, oral capsule, 20 mg BHV-3500 in 25 mg DDM, 2 h post-dose, average, read-out: BHV-3500 Concentration in Dog Plasma",18.9 ng/mL
same,concentration at 4 h,"female, beagle, dog, plasma, po, 20 mg, Group 3, oral capsule, 20 mg BHV-3500 in 25 mg DDM, 4 h post-dose, average, read-out: BHV-3500 Concentration in Dog Plasma",2.18 ng/mL
same,concentration at 4 h,"female, beagle, dog, plasma, po, 20 mg, Group 3, oral capsule, 20 mg BHV-3500 in 25 mg DDM, 4 h post-dose, individual dogs, read-out: BHV-3500 Concentration in Dog Plasma",2.18 ng/mL
same,AUC(0-t),[2],48.1 ng·h/mL
same,Cmax,"female, beagle, dog, plasma, po, 20 mg, Group 3, oral capsule, 20 mg BHV-3500 in 25 mg DDM, average, read-out: Cmax",17.3 ng/mL
same,AUC(0-t),[3],48.1 ng·h/mL
